Patent publication US20250339569A1, “CARBONIC ANHYDRASE IX LIGANDS” (priority 2021, published 2025)
Where two headings read alike, the source gives them in different places. Starred links: 1 amine or outer side, 2 acyl side, 3 side chain; linkers in the order of their positions; H or OH if unused. Positions of bridges follow the written chain, without caps; N, C: chain ends. Non-standard residues stand in square brackets, D forms with d. Residues, ends and D or L forms follow the SMILES beside them. *: point of attachment. Phe(3-NHCO(CH2)3SO2NH2) = N[C@@H](Cc1cccc(NC(=O)CCCS(N)(=O)=O)c1)C(=O)O; DOTA = O=C(O)CN1CCN(CC(=O)O)CCN(CC(=O)*)CCN(CC(=O)O)CC1; mXylylene = c1cc(C[*:1])cc(C[*:2])c1; X2 = O=C(CN1CCC(N[*:1])CC1)[*:2]; Dap = NC[C@H](N)C(=O)O

Assays:
[1] = human, plasma
[2] = mouse, plasma, 24 h
[3] = target: T1, CAIX-expressing human HT-29 colorectal cancer cells (Homo sapiens, UniProt Q16790); assay: FACS binding assay (IC50 determination, competition with tracer 3BP-2776 or 3BP-4149); conditions: 4° C., 1 hour, read-out: pIC50 category (activity) (converted)
T1 construct: CAIX-expressing human HT-29 colorectal cancer cells; host or cells: HT-29 human colorectal cancer cells
Outline: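 HT-29 cells in FACS buffer (PBS, 1% FCS) at 500.000 cells/ml were exposed to compounds competing with a labelled tracer, with biotinylated compounds detected by 1 μg/mL APC-streptavidin for 30 min on ice. APC/Cy5 median fluorescence was read by flow cytometry and IC50 derived by 4PL fit.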

[4] = target: T2, CAIV (hCAIV-bio) (Homo sapiens, UniProt P22748); assay: SPR selectivity assay with biotinylated CAIV; type: binding; conditions: SPR, biotinylated CAIV; read-out: pKD category (affinity) CAIV (converted)
T2 construct: purchased SinoBliological (Sino Biological) 10472-1H081H
T2 sequence (P22748 19-284): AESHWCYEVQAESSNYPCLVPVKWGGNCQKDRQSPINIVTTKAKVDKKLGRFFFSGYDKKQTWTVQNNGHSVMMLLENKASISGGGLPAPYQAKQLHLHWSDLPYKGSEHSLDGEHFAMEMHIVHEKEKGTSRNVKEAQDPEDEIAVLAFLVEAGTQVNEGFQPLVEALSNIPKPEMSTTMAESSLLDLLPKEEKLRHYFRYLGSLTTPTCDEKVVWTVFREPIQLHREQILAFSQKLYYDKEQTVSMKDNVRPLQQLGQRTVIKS
Method: (§1) In order to test selectivity of CAIX-binding peptides toward CAIV (SinoBliological, Cat #10472-1H081H), CAXII (SinoBliological, Cat #10617-H08H or CAXIV (SinoBliological, Cat #10458-H08H), SPR assays were performed analog to the assay described above but with a different target capture procedure. For immobilization, the carbonic anhydrases were biotinylated and capture on the SPR chip using the Biotin CAPture Kit (cytiva) according to the manufacturer instructions using HBSTE, 0.1% as Running Buffer.
(§2) Table 13 describes the protocol steps for biotinylated target capturing and assessment of the binding kinetics.

[5] = target: T3, Recombinant soluble human NEP (Homo sapiens, UniProt P08473); assay: Proteolytic stability assay against NEP; type: in vitro ADME; conditions: 100 ng/mL NEP, 10 μM compound, 37°C
T3 construct: Recombinant soluble human NEP; purchased BioTechne, Wiesbaden, Germany
T3 sequence (P08473 52-750 limits assumed): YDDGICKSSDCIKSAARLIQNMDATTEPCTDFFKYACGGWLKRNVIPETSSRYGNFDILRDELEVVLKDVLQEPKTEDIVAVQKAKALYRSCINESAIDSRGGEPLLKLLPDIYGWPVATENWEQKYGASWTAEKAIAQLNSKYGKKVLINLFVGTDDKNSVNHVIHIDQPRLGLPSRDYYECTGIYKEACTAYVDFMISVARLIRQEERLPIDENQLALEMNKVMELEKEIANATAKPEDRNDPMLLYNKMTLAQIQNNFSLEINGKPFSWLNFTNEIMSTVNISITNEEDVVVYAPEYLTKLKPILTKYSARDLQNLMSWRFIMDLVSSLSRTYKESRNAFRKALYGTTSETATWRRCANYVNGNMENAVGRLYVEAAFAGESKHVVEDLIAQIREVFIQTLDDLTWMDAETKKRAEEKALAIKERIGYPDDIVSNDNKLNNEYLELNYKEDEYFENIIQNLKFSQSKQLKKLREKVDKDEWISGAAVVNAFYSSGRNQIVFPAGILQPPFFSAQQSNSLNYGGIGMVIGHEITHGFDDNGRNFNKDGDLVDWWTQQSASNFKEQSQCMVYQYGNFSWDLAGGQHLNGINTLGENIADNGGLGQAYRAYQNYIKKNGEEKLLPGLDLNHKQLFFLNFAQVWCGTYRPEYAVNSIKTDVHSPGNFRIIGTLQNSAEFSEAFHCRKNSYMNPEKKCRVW

[6] = target: T4, CAXII (hCAXII-bio) (Homo sapiens, UniProt O43570); assay: SPR selectivity assay with biotinylated CAXII; type: binding; conditions: SPR, biotinylated CAXII; read-out: pKD category (affinity) CAXII (converted)
T4 construct: purchased SinoBliological (Sino Biological) 10617-H08H
T4 sequence (O43570 25-354): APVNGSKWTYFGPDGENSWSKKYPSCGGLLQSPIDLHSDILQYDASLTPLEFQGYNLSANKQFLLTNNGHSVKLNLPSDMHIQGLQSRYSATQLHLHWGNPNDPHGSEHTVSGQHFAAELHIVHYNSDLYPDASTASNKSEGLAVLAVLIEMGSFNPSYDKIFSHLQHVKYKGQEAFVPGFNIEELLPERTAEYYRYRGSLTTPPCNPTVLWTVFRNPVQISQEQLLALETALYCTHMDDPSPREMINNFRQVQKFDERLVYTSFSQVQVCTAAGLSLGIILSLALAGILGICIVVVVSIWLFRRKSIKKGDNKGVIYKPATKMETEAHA
Method: as §1, §2

[7] = Plasma stability assay, human plasma; conditions: 37°C
[8] = target: T5, mouse CAIX (Mus musculus, UniProt Q8VHB5); assay: Radioligand binding assay, 111In-labeled compounds, CHO-VGT cells with mouse CAIX; conditions: 111In-labeled compound, Mouse CAIX, 8 h at 37°C; read-out: pKD category (activity) (converted)
T5 construct: host or cells: CHO-VGT / CHO cells
T5 sequence (Q8VHB5 32-437): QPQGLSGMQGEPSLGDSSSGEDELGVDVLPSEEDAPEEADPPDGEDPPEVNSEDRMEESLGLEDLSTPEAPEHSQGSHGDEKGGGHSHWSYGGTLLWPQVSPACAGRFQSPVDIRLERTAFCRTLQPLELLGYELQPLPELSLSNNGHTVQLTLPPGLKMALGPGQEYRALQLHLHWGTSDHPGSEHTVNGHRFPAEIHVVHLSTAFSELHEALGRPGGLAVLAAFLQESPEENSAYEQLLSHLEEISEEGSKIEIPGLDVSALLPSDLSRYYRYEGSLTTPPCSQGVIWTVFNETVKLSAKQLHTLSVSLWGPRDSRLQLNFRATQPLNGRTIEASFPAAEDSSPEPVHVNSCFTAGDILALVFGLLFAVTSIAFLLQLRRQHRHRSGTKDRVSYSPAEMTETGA
Method: (§3) In order to assess the affinity of ^111In-labeled compounds to CAIX of different species, a radioligand binding assay was established.
(§4) CHO-VGT cells were transfected with the human, dog, and mouse CAIX (InSCREENex GmbH) and cultured in Ham's F-12 medium (Sigma-Aldrich #N4888) supplemented with 10% fetal bovine serum (FCS), 2 mM L-glutamine, 100 U/mL Penicillin, and 0.1 mg/mL streptomycin. Cells were detached with Accutase (Biolegend #423201) and counted using a particle counter (CASY Model TT; Scharfe Systems, Germany). Cell concentrations were adjusted to 3×10^5 mL^−1, and 1.000 μL of the suspension per well were dispensed into flat-clear-bottom 24 well plates.
(§5) Approximately 24 hours after re-seeding, the medium was aspirated and the cells were washed once with 1000 μL assay medium (Ham's medium without additives). To determine total binding, 700 μL of assay medium and 100 μL of the radioligand dilutions were added to the wells in triplicates. To determine non-specific binding, 600 μL of binding medium, 100 μL of the radioligand dilutions and 100 μL of a blocking solution containing 8 μM non-labeled compound were added to the wells in triplicates. At the end of incubation time (8 h at 37° C.), cells were washed and subsequently harvested in 300 μL RIPA buffer (Thermo Scientific #89901) containing Protease Inhibitor Cocktail Set I (Calbiochem #539131). Radioactivity of the cell lysate of each well was counted using a gamma counter (1470 Wizard, PerkinElmer, USA). An aliquot of each radioligand dilution was included in the gamma counter measurements to allow for determination of their actual concentrations via their known specific activity.

[9] = test system: dog CAIX; assay: Radioligand binding assay, 111In-labeled compounds, CHO-VGT cells with dog CAIX; conditions: 111In-labeled compound, 8 h at 37°C
Method: as §3, §4, §5

[10] = Plasma stability assay, mouse plasma; conditions: mouse plasma, 37°C, 24 h
[11] = target: T6, CAXIV (hCAXIV-bio) (Homo sapiens, UniProt Q9ULX7); assay: SPR selectivity assay with biotinylated CAXIV; type: binding; conditions: SPR, biotinylated CAXIV; read-out: pKD category (affinity) CAXIV (converted)
T6 construct: purchased SinoBliological (Sino Biological) 10458-H08H
T6 sequence (Q9ULX7 16-337): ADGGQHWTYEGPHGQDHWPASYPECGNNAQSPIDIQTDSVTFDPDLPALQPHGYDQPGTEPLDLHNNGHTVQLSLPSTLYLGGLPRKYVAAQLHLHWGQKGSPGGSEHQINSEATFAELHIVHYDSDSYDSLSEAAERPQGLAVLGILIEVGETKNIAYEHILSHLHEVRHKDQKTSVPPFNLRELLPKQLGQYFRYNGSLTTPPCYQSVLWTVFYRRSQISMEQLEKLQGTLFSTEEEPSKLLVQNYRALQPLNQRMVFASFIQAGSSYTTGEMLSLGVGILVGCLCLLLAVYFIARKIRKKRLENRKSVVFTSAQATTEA
Method: as §1, §2

[12] = target: T7, human carbonic anhydrase IX (hCAIX-Fc) (Homo sapiens, UniProt Q16790); assay: Surface plasmon resonance assay with hCAIX-Fc; type: binding; conditions: for t1/2 category (activity): SPR dissociation half-life, hCAIX-Fc
T7 construct: purchased SinoBliological (Sino Biological) 10107-H02H

[13] = in vitro; conditions: human, plasma
[14] = in vitro; conditions: mouse, plasma
[15] = target: human CAIX (Homo sapiens, UniProt Q16790); assay: Radioligand binding assay, 111In-labeled compounds, CHO-VGT cells with human CAIX; design: host or cells: CHO-VGT / CHO cells; conditions: 111In-labeled compound, Human CAIX, 8 h at 37°C; read-out: pKD category (activity) (converted)
Method: as §3, §4, §5

Compound | % intact compound remaining after 24 h incubation [1] [%] | % intact compound remaining (incubation time) [2] [%] | IC50 ([3]; FACS competition on HT-29 cells, Tracer ID 3BP-2776 (10 nM, biotin-labeled)) [nM] | Kd [4] [nM] | % intact compound remaining after 24 h incubation [5] [%] | Kd [6] [nM] | % intact compound remaining after 24 h incubation [7] [%] | Kd [8] [nM] | pKD category (activity) [9] | % intact compound remaining (incubation time) [10] [%] | Kd [11] [nM] | t1/2 category (activity) ([12]; 25° C.) | IC50 ([3]; FACS binding assay, HT-29 cells, competition with tracer 3BP-2776 (10 nM, biotin-labeled)) [nM] | remaining at 24 h, […] [13] [%] | remaining at 24 h, […] [14] [%] | pKD category (affinity) CAIX ([12]; SPR, hCAIX) | Kd ([12]; SPR, hCAIX-Fc captured, 25° C., read-out: pKD category (activity) (converted)) [nM] | Kd [15] [nM]
CC(C)C[C@@H]1NC(=O)[C@H](Cc2ccc(NC(=O)CCS(N)(=O)=O)cc2)NC(=O)[C@H](CC(=O)O)NC(=O)[C@H]2CCCN2C(=O)[C@H](CCC(=O)O)NC(=O)[C@@H](NC(=O)[C@H](CCC(N)=O)NC(=O)CN2CCN(CC(=O)O)CCN(CC(=O)O)CCN(CC(=O)O)CC2)CSCc2cccc(c2)CSC[C@@H](C(N)=O)NC(=O)[C@H](CO)NC(=O)[C@H](Cc2c[nH]c3ccccc23)NC(=O)[C@H]([C@@H](C)O)NC1=O (natLu complex, metal not drawn) [3BP-4581] | >95 | >95 | – | – | – | – | – | – | – | – | – | – | – | – | – | – | – | –
CC(C)C[C@@H]1NC(=O)[C@H](Cc2c[nH]c3ccccc23)NC(=O)[C@H](CC(=O)O)NC(=O)[C@H]2CCCN2C(=O)[C@H](CCC(=O)O)NC(=O)[C@@H](NC(=O)[C@H](Cc2ccc(O)cc2)NC(=O)[C@@H](NC(=O)CN2CCC(NC(=O)CN3CCN(CC(=O)O)CCN(CC(=O)O)CCN(CC(=O)O)CC3)CC2)C(C)C)CSCc2cccc(c2)CSC[C@@H](C(N)=O)NC(=O)[C@H](CO)NC(=O)[C@H](Cc2c[nH]c3ccccc23)NC(=O)[C@H]([C@@H](C)O)NC1=O [3BP-3583, DOTA-APAc-Val-Tyr-[Cys(3MeBn)-Glu-pro-Asp-Trp-Leu-Thr-Trp-Ser-Cys]-NH2] ({DOTA}-[X2]VYCE[dP]DWLTWSC-NH2; linker 4-13 via mXylylene) | – | – | < 10 | > 1000 | >95 | > 1000 | 71 | 100 to 794 | A (pKD values >8.0) | 79 | > 1000 | A (t1/2>15.0 minutes) | – | – | – | – | – | –
CC(C)C[C@@H]1NC(=O)[C@H](Cc2cccc(NC(=O)CCCS(N)(=O)=O)c2)NC(=O)[C@H](CC(=O)O)NC(=O)[C@H]2CCCN2C(=O)[C@H](CCC(=O)O)NC(=O)[C@@H]2CSCc3cccc(c3)CSC[C@@H](C(N)=O)NC(=O)[C@H](CNC(=O)CC[C@H](NC(=O)CN3CCN(CC(=O)O)CCN(CC(=O)O)CCN(CC(=O)O)CC3)C(=O)N2)NC(=O)[C@H](Cc2c[nH]c3ccccc23)NC(=O)[C@H]([C@@H](C)O)NC1=O [3BP-4503, DOTA-{Glu-[Cys(3MeBn)-Glu-pro-Asp-Af3(Cpsu)-Leu-Thr-Trp-Dap}-Cys]-NH2] ({DOTA}-ECE[dP]D[Phe(3-NHCO(CH2)3SO2NH2)]LTW[Dap]C-NH2; lactam 1-10; linker 2-11 via mXylylene) | – | – | – | > 1000 | – | > 1000 | – | < 10 | A (pKD values >8.0) | – | > 1000 | A (t1/2>15.0 minutes) | < 10 | > 95 | > 95 | A (pKD values >8.0) | < 10 | < 10
